Source: EP0183129A1, “Quinolonecarboxylic acid derivatives” (KYORIN PHARMACEUTICAL CO., LTD., priority 1984, dated 1986)
Values after ≈ are worked out from the molar mass of the structure shown.

Experiments:
[1] = system: S. pyogenes 4372; assay: In vitro antibacterial activity, MIC (clinical isolates); type: cell-based; settings: Streptococcus pyogenes, 4372
[2] = system: S. pneumoniae 2054; assay: as above; type: cell-based; settings: Streptococcus pneumoniae, 2054
[3] = system: Pseudomonas aeruginosa V-1; assay: In vitro antibacterial activity, MIC (standard strain); type: cell-based; settings: Pseudomonas aeruginosa, V1
[4] = system: S. faecalis 402; assay: In vitro antibacterial activity, MIC (clinical isolates); type: cell-based; settings: Enterococcus faecalis, 402
[5] = system: Clostridium perfringens KYA 13123; assay: microbe, parasite or virus in culture; type: cell-based; settings: KYA13123
[6] = system: Staphylococcus aureus 209 P; assay: In vitro antibacterial activity, MIC (standard strain); type: cell-based; settings: Staphylococcus aureus, 209P
[7] = system: S. marcescens GN 7577; assay: as above; type: cell-based; settings: Serratia marcescens, GN7577
[8] = system: P. mirabilis IID 994; assay: as above; type: cell-based; settings: Proteus mirabilis, IID994
[9] = system: Morganella morganii IID 602; assay: as above; type: cell-based; settings: Morganella morganii, IID602
[10] = system: S. agalactiae 4470; assay: In vitro antibacterial activity, MIC (clinical isolates); type: cell-based; settings: Streptococcus agalactiae, 4470
[11] = system: S. faecalis 49; assay: as above; type: cell-based; settings: Enterococcus faecalis, 49
[12] = system: K. pneumoniae 1-220S; assay: In vitro antibacterial activity, MIC (standard strain); type: cell-based; settings: Klebsiella pneumoniae, 1220S
[13] = system: Yersinia enterocolitica IID 981; assay: as above; type: cell-based; settings: Yersinia enterocolitica, IID981
[14] = system: S. faecalis 401; assay: In vitro antibacterial activity, MIC (clinical isolates); type: cell-based; settings: Enterococcus faecalis, 401
[15] = system: S. pyogenes 4340; assay: as above; type: cell-based; settings: Streptococcus pyogenes, 4340
[16] = system: Bacillus subtilis PCI 219; assay: In vitro antibacterial activity, MIC (standard strain); type: cell-based; settings: Bacillus subtilis, PCI219
[17] = system: S. epidermidis IID 866; assay: as above; type: cell-based; settings: Staphylococcus epidermidis, IID866
[18] = system: Fusobacterium varium KYA 8501; assay: as above; type: cell-based; settings: Fusobacterium varium, KYA8501
[19] = system: S. aureus Smith; assay: as above; type: cell-based, Staphylococcus aureus; settings: Staphylococcus aureus; S. aureus Smith; 10^6 cells/ml; standard strain
[20] = system: Serratia marcescens IID 618; assay: as above; type: cell-based; settings: Serratia marcescens, IID618
[21] = system: E. coli ATCC 10536; assay: as above; type: cell-based; settings: Escherichia coli, ATCC10536
[22] = system: B. fragilis 0558; assay: as above; type: cell-based, Bacteroides fragilis; settings: Bacteroides fragilis, 0558
[23] = system: S. pneumoniae 2950; assay: In vitro antibacterial activity, MIC (clinical isolates); type: cell-based; settings: Streptococcus pneumoniae, 2950
[24] = system: S. agalactiae 4368; assay: as above; type: cell-based; settings: Streptococcus agalactiae, 4368
[25] = system: P. aeruginosa IFO 12689; assay: In vitro antibacterial activity, MIC (standard strain); type: cell-based, Pseudomonas aeruginosa; settings: Pseudomonas aeruginosa, IFO12689
[26] = system: E. coli ML 4707; assay: as above; type: cell-based; settings: Escherichia coli, ML4707
[27] = system: S. aureus IID 670 (Terajima); assay: as above; type: cell-based, Staphylococcus aureus; settings: Staphylococcus aureus, IID670
[28] = system: S. pyogenes IID 692; assay: as above; type: cell-based; settings: Streptococcus pyogenes, IID692
[29] = system: C. ramosum; assay: as above; type: cell-based; settings: Thomasclavelia ramosa
[30] = system: Streptococcus pyogenes S-8; assay: as above; type: cell-based; settings: Streptococcus pyogenes, S8
[31] = system: S. pyogenes 3130; assay: In vitro antibacterial activity, MIC (clinical isolates); type: cell-based; settings: Streptococcus pyogenes
[32] = system: Salmonella entritidis IID 604; assay: In vitro antibacterial activity, MIC (standard strain); type: cell-based; settings: Salmonella, IID604
[33] = system: Enterobacter cloacae IID 977; assay: as above; type: cell-based; settings: Enterobacter cloacae, IID977
[34] = system: S. pneumoniae 3227; assay: In vitro antibacterial activity, MIC (clinical isolates); type: cell-based; settings: Streptococcus pneumoniae, 3227
[35] = system: Proteus vulgaris IFO 3167; assay: In vitro antibacterial activity, MIC (standard strain); type: cell-based; settings: Proteus vulgaris, IFO3167
[36] = system: S. pyogenes 3102; assay: In vitro antibacterial activity, MIC (clinical isolates); type: cell-based; settings: Streptococcus pyogenes, 3102
[37] = system: S. agalactiae 4394; assay: as above; type: cell-based; settings: Streptococcus agalactiae, 4394
[38] = system: Acinetobacter anitratus IID 876; assay: In vitro antibacterial activity, MIC (standard strain); type: cell-based; settings: Acinetobacter calcoaceticus, IID876
[39] = system: S. agalactiae 4342; assay: In vitro antibacterial activity, MIC (clinical isolates); type: cell-based; settings: Streptococcus agalactiae, 4342
[40] = system: Citrobacter freundii IID 976; assay: In vitro antibacterial activity, MIC (standard strain); type: cell-based; settings: Citrobacter freundii, IID976
[41] = system: Klebsiella pneumoniae KY(GN)6445; assay: as above; type: cell-based; settings: Klebsiella pneumoniae
[42] = system: S. pneumoniae IID 552; assay: as above; type: cell-based; settings: Streptococcus pneumoniae, IID552
[43] = system: S. faecalis 214; assay: In vitro antibacterial activity, MIC (clinical isolates); type: cell-based; settings: Enterococcus faecalis, 214
[44] = system: Alcaligenes faecalis 0104002; assay: In vitro antibacterial activity, MIC (standard strain); type: cell-based; settings: Alcaligenes faecalis, 0104002
[45] = system: S. faecalis IID 682; assay: as above; type: cell-based; settings: Enterococcus faecalis, IID682
[46] = system: B. fragilis 25285; assay: as above; type: cell-based, Bacteroides fragilis; settings: Bacteroides fragilis, 25285
[47] = system: Bacteroides fragilis GM 7000; assay: as above; type: cell-based; settings: Bacteroides fragilis, GM7000
[48] = system: P. aeruginosa IID 1210; assay: as above; type: cell-based; settings: Pseudomonas aeruginosa, IID1210
[49] = system: Escherichia coli NIHJ JC-2; assay: as above; type: cell-based; settings: Escherichia coli, NIHJJC2
[50] = system: S. agalactiae 4049; assay: In vitro antibacterial activity, MIC (clinical isolates); type: cell-based; settings: Streptococcus agalactiae, 4049
[51] = system: S. agalactiae 4468; assay: as above; type: cell-based; settings: Streptococcus agalactiae, 4468
[52] = system: Shigella sonnei IID 969; assay: In vitro antibacterial activity, MIC (standard strain); type: cell-based; settings: IID969, 10^6 cells/ml
Description: Experiment-1 In vitro antibacterial activity
The in vitro antibacterial activity against gram-positive and gram-negative bacteria has been investivated.
The minimum inhibitory concentration (MIC) was determined in accordance with the method recommended by Japan Society of Chemotherapy.

[53] = system: S. pneumoniae 15; assay: In vitro antibacterial activity, MIC (clinical isolates); type: cell-based; settings: Streptococcus pneumoniae, 15
[54] = system: S. pyogenes 3107; assay: as above; type: cell-based; settings: Streptococcus pyogenes, 3107

## NCC1CCN(c2cc3c(cc2F)c(=O)c(C(=O)O)cn3C2CC2)C1 (stereo not drawn) [Example 6, 7-(3-Aminomethyl-l-pyrrolidinyl)-l-cyclopropyl-6-fluoro-l,4-dihydro-4-oxo-3-quinolinecarboxylic acid]
[1]
  MIC: 0.1 µg/mL (≈ 0.29 µM)
[2]
  MIC: 0.39 µg/mL (≈ 1.13 µM)
[3]
  MIC: 0.78 µg/mL (≈ 2.26 µM)
[4]
  MIC: 0.39 µg/mL (≈ 1.13 µM)
[5]
  MIC: 3.13 µg/mL (≈ 9.06 µM)
[6]
  MIC: 0.05 µg/mL (≈ 0.145 µM)
[7]
  MIC: 3.13 µg/mL (≈ 9.06 µM)
[8]
  MIC: 0.1 µg/mL (≈ 0.29 µM)
[9]
  MIC: 0.39 µg/mL (≈ 1.13 µM)
[10]
  MIC: 0.2 µg/mL (≈ 0.579 µM)
[11]
  MIC: 0.39 µg/mL (≈ 1.13 µM)
[12]
  MIC: 0.2 µg/mL (≈ 0.579 µM)
[13]
  MIC: 0.2 µg/mL (≈ 0.579 µM)
[14]
  MIC: 0.39 µg/mL (≈ 1.13 µM)
[15]
  MIC: 0.05 µg/mL (≈ 0.145 µM)
[16]
  MIC: 0.05 µg/mL (≈ 0.145 µM)
[17]
  MIC: 0.05 µg/mL (≈ 0.145 µM)
[18]
  MIC: 25 µg/mL (≈ 72.4 µM)
[19]
  MIC: 0.2 µg/mL (≈ 0.579 µM)
[20]
  MIC: 0.39 µg/mL (≈ 1.13 µM)
[21]
  MIC: 0.05 µg/mL (≈ 0.145 µM)
[22]
  MIC: 6.25 µg/mL (≈ 18.1 µM)
[23]
  MIC: 0.2 µg/mL (≈ 0.579 µM)
[24]
  MIC: 0.2 µg/mL (≈ 0.579 µM)
[25]
  MIC: 0.78 µg/mL (≈ 2.26 µM)
[26]
  MIC: 0.05 µg/mL (≈ 0.145 µM)
[27]
  MIC: 0.05 µg/mL (≈ 0.145 µM)
[28]
  MIC: 0.2 µg/mL (≈ 0.579 µM)
[29]
  MIC: 12.5 µg/mL (≈ 36.2 µM)
[30]
  MIC: 0.1 µg/mL (≈ 0.29 µM)
[31]
  MIC: 0.05 µg/mL (≈ 0.145 µM)
[32]
  MIC: 0.2 µg/mL (≈ 0.579 µM)
[33]
  MIC: 0.2 µg/mL (≈ 0.579 µM)
[34]
  MIC: 0.2 µg/mL (≈ 0.579 µM)
[35]
  MIC: 0.05 µg/mL (≈ 0.145 µM)
[36]
  MIC: 0.05 µg/mL (≈ 0.145 µM)
[37]
  MIC: 0.39 µg/mL (≈ 1.13 µM)
[38]
  MIC: 0.78 µg/mL (≈ 2.26 µM)
[39]
  MIC: 0.2 µg/mL (≈ 0.579 µM)
[40]
  MIC: 0.1 µg/mL (≈ 0.29 µM)
[41]
  MIC: 0.1 µg/mL (≈ 0.29 µM)
[42]
  MIC: 0.1 µg/mL (≈ 0.29 µM)
[43]
  MIC: 0.39 µg/mL (≈ 1.13 µM)
[44]
  MIC: 1.56 µg/mL (≈ 4.52 µM)
[45]
  MIC: 0.39 µg/mL (≈ 1.13 µM)
[46]
  MIC: 12.5 µg/mL (≈ 36.2 µM)
[47]
  MIC: 6.25 µg/mL (≈ 18.1 µM)
[48]
  MIC: 3.13 µg/mL (≈ 9.06 µM)
[49]
  MIC: 0.05 µg/mL (≈ 0.145 µM)
[50]
  MIC: 0.39 µg/mL (≈ 1.13 µM)
[51]
  MIC: 0.2 µg/mL (≈ 0.579 µM)
[52]
  MIC: 0.05 µg/mL (≈ 0.145 µM)
[53]
  MIC: 0.2 µg/mL (≈ 0.579 µM)
[54]
  MIC: 0.05 µg/mL (≈ 0.145 µM)
